Test results taken from patent US5863716A, “Treatment of plasmodium” (The Leland Stanford Junior University Board of Trustees, priority 1997, dated 1999).

Assays:
sphingomyelin synthase = experiment: Inhibition of plasmodial sphingomyelin biosynthesis in intact infected erythrocytes (C6-NBD-ceramide to C6-NBD-sphingomyelin, TLC); format: cell-based, Plasmodium falciparum
Procedure: 1×10^8 infected cells 24 h after invasion were washed serum-free in RPMI 1640 and preincubated for thirty min at 37° C. in 1 ml of RPMI 1640 containing 0-5 μM or 0-500 μM of PPMP. (C6-NBD-ceramide (N-[7-(4-nitrobenzo-2-oxa-1,3-diazide)]-6-aminocaproyl-D-erythro-sphingosine) was added to each sample at a final concentration of 5 μM, the samples further incubated for 30 min at 37° C. and cellular lipids extracted. C6-NBD-sphingomyelin was resolved by TLC and quantitated by fluorescence spectrophotometry as described previously. Bligh, E. G. and Dyer, W. Y. (1959) A rapid method for total lipid extraction and purification., Can. J. Biochem. Physiol. 37: 911-917. Haldar, K., Uyetake, L., Ahori, N., Elmendorf, H. G. and Lu, W-1. (1991) The accumulation and metabolism of a fluorescent ceramide derivative in Plasmodium falciparum--infected erythrocytes., Mo. Biochem. Parasitol. 49: 143-156. Elmendorf, H. G. and Haldar, K. (1994) Plasmodium falciparum exports the Golgi marker sphingomyelin synthase into a tubovesicular network in the cytoplasm of mature erythrocytes., J. Cell Biol. 124: 449-462. Each value obtained represented the mean of triplicate determinations from five experiments. The arrow bars indicate the standard deviations. The results are depicted in FIG. 1.
(§1) P. falciparum strain FCB was used for all experiments and cultured in vitro in according to a modification of the method of Trager and Jensen left off. Trager, W. and Jensen, J. B. (1976) Human malaria in continuous culture., Science (Wash. D.C.) 193: 673-675 Haldar, K., Ferguson, M. A. J. and Cross, G. A. M. (1985) Acylation of a Plasmodium falciparum merozoite surface antigen via sn-1, 2-diacyl glycerol. J. Biol. Chem. 260; 4969-4974. The culture medium contained RPMI 1640 supplemented with 25 Mm hepes, Ph 7.4/11 […] glucose/92 μM hypoxanthine/0.18% sodium bicarbonate/25 μM gentamicin and 10% AB^+ human sera. The parasites were grown in A^+ erythrocytes at 2.5-5% hematocrit. Parasite cultures were synchronized by separation of the early and late stages on a Percoll gradient. The subsequent reincubation of these stages in culture were used to obtain cells 12-24 h in the life cycle. Inhibition of sphingomyelin biosynthetic activity using 5 μM of the various compounds was carried out as described in Example 1. 5 μM of the various compounds were added to 0-12 h rings in the culture medium and cells were examined by Giemsa staining after 24 h.

P. falciparum strain FCB = experiment: Inhibition of intraerythrocytic growth in culture, Giemsa staining after 24 h; format: cell-based, Plasmodium falciparum; details: Plasmodium falciparum; 5 μM added to 0-12 h rings; Giemsa staining after 24 h; read-out: [%] inhibition of growth
Excerpt: as §1

DNA synthesis = experiment: Effect on DNA synthesis; format: cell-based
[1] = system: P. falciparum schizonts and merozoites; experiment: Schizont maturation and merozoite invasion in the presence of drug; format: cell-based, Plasmodium falciparum; details: 5 μM
Procedure: (§2) Schizont-stage parasites isolated over Percoll were allowed to invade in the presence of RPMI 1640 containing 10% human serum or in the presence of RPMI 1640 containing 10% human serum and 5 μM PPMP. 1×10^8 infected erythrocytes of the appropriate stage were incubated in 1 ml of RPMI 1640 supplemented with 2mg/ml defatted BSA and 20 μM C5 -DMB-ceramide. Cells were washed and fixed as described in Example 5. Sequential micrographs were taken on a custom made laser confocal microscope at 400 nm intervals along the Z axis. Raw data were processed as described previously.
Furthermore, the released daughter merozoites enter red cells to form new rings in the continued presence of the drug. This supports the conclusion that the parasite sphingomyelin synthase is essential only to ring and trophozoite-infected red cells in the first 30 to 36 h of intraerythrocytic development.
To determine whether the parasite specific sphingomyelin synthase activity is required for the development of the TVM, ring-infected erythrocytes inhibited in the enzyme from the onset of intra- erythrocytic development were employed. […] Optical sections obtained by staining with C5 DMB-ceramide were observed. A tubular structure was seen extending from the body of the parasite apparently connected to a larger vesicle in the red cell. In rings formed in the presence of PPMP, the intraerythrocytic structures are seen as discrete domains, separated from each other in all three sections. […] Thus, specific inhibition of the parasite's sphingomyelin biosynthetic activity appears to alter the interconnected "tubovesicular morphology" of the TVM into isolated intraerythrocytic compartments or "vesicles" in ring stage parasites.

[2] = system: tubovesicular membrane reticulum (TVM) of P. falciparum-infected erythrocytes; experiment: Tubovesicular membrane (TVM) morphology, C5-DMB-ceramide labeling, confocal microscopy; format: cell-based; details: 5 μM
Procedure: Serial sections through P. falciparum-infected erythrocytes labeled with C5 -DMB-ceramide (4,4-difluoro-5,7-dimethyl-4-bora-3a,4a-diaza-5-indacene-3-pentanoyl)-sphingosine) 12 h (rings) and 36 h (trophozoites) after invasion.
as §2

Toxicity in mice = details: mouse, in vivo; over 16 days; preliminary studies; read-out: dose with no significant toxicity
Procedure: (§3) Preparation of test compounds, toxicity and pharmacokinetics in mice: PPMP and its derivatives are made up as a stock solution in ethanol, diluted into sterile saline, warmed up to 37° C. and delivered once or several times a day, either intraperitoneally (i.p.) or intravenously (i.v.). The animals are monitored on a daily basis for signs of toxicities which (from mild to extreme) include abnormal grooming behavior, loss or thinning of hair, enlargement of spleen and loss of activity. 0 to 30 micrograms PPMP/per gm of mouse body weight is administered. Effective anti-parasite concentrations of PPMP are predicted to be at ~2 micrograms of PPMP/gm of mouse body weight. Based on preliminary studies, 8-10 micrograms of PPMP per gram of (mouse) body weight have no significant toxicity over 16 days. Compounds and levels found to be non toxic over 30 days will be further tested for their effects on infections of P. yoelii and P. chabaudi.

[3] = system: P. yoelii and P. chabaudi; experiment: Anti-parasite effect in infected mice; format: in vivo, mouse
Procedure: as §3
Effects of PPMP/other lead compounds on non lethal and lethal strains of P. yoelii and P. chabaudi. Both lethal and non lethal strains of P. yoelii have a 24 h cycle. For both strains, parasites can be injected i.p., with an innoculum of 5×10^5 parasites. […]
Mice are injected with the inhibitor on day 1. […] On subsequent days the drugs is delivered once a day and the parasitemia is monitored by tail bleeds. […]

## CCCCCCCCCCCCCCCC(=O)N[C@H](CN1CCOCC1)[C@H](O)c1ccccc1 (relative stereo) [PPMP, dl-threo-1-phenyl-2-palmitoylamino-3-morpholino-1-propanol]
Sphingomyelin synthase; 0.05-0.5 μM PPMP
  effect on sphingomyelin synthase activity: initial, rapid decrease in the sphingomyelin synthase activity
Sphingomyelin synthase; second pool
  concentration at which the second pool of enzyme is quantitatively inhibited: 100 to 500 µM
Sphingomyelin synthase; sensitive pool
  concentration at which the sensitive pool of sphingomyelin synthase is completely inhibited: 1 to 5 µM
P. falciparum strain FCB
  inhibition at 5 µM: 100%
DNA synthesis
  inhibition of DNA synthesis: not inhibitory
[1]
  effect on schizont maturation and merozoite invasion into erythrocytes: not to block either schizont maturation or merozoite invasion into erythrocytes
  fate of schizonts greater than 40 h in the cycle: mature and rupture
[1]; then washout
  development of rings formed in drug after washing free of the drug: developed normally in culture
[2]; 240 optical sections through 20 cells
  TVM morphology in rings formed in the presence of drug: markedly devoid of tubular connections
[2]; 36 h in the life cycle
  intraerythrocytic structures at 36 h in continued presence of drug: remain as isolated spots
Toxicity in mice
  NOAEL at 384 h: 8 to 10 mg/kg
[3]
  effective anti-parasite concentration (predicted): ~ 2 micrograms of PPMP/gm of mouse body weight
